Measured values reported in ChEMBL document CHEMBL5634143, “Development of teixobactin analogues containing hydrophobic, non-proteogenic amino acids that are highly potent against multidrug-resistant bacteria and biofilms” (Eur J Med Chem, 2023).
Converted amounts (≈) assume the structure as drawn.

How the values were obtained:
Format in all cases: functional
Staphylococcus aureus [1] = assay: Antibacterial activity against methicilin-resistant Staphylococcus aureus 42412 assessed as inhibition of bacterial growth
[2] = test system: Staphylococcus saprophyticus; assay: Antibacterial activity against Staphylococcus saprophyticus ATCC 49453 assessed as inhibition of bacterial growth
Enterococcus faecium [3] = assay: Antibacterial activity against Vancomycin-resistant Enterococcus faecium 1014 assessed as inhibition of bacterial growth
Staphylococcus aureus [4] = assay: Antibacterial activity against methicilin-resistant Staphylococcus aureus 1003 assessed as inhibition of bacterial growth
[5] = test system: Staphylococcus saprophyticus; assay: Antibacterial activity against Staphylococcus saprophyticus ATCC 15305 assessed as inhibition of bacterial growth
Staphylococcus aureus [6] = assay: Antibacterial activity against methicilin-resistant Staphylococcus aureus ATCC 700699 assessed as inhibition of bacterial growth
Staphylococcus aureus [7] = assay: Antibacterial activity against methicilin-resistant Staphylococcus aureus 21455 assessed as inhibition of bacterial growth
Bacillus subtilis = assay: Antibacterial activity against Bacillus subtilis ATCC 6633 assessed as inhibition of bacterial growth
Enterococcus faecium [8] = assay: Antibacterial activity against Vancomycin-resistant Enterococcus […] ATCC 700802 assessed as inhibition of bacterial growth
[9] = test system: Staphylococcus epidermidis; assay: Antibacterial activity against Staphylococcus epidermidis 12228 assessed as inhibition of bacterial growth
[10] = test system: Staphylococcus saprophyticus; assay: Antibacterial activity against Staphylococcus saprophyticus ATCC 49907 assessed as inhibition of bacterial growth
Staphylococcus aureus [11] = assay: Antibacterial activity against Staphylococcus aureus 4299 assessed as inhibition of bacterial growth
Enterococcus faecium [12] = assay: Antibacterial activity against Vancomycin-resistant Enterococcus […] ATCC 29212 assessed as inhibition of bacterial growth; conditions: Enterococcus faecalis
Bacillus cereus = assay: Antibacterial activity against Bacillus cereus ATCC 11788 assessed as inhibition of bacterial growth
[13] = test system: Staphylococcus saprophyticus; assay: Antibacterial activity against Staphylococcus saprophyticus ATCC BAA 750 assessed as inhibition of bacterial growth
Staphylococcus aureus [14] = assay: Antibacterial activity against Staphylococcus aureus 29213 assessed as inhibition of bacterial growth

Compound	MIC (Staphylococcus aureus [1])	MIC [2]	MIC (Enterococcus faecium [3])	MIC (Staphylococcus aureus [4])	MIC [5]	MIC (Staphylococcus aureus [6])	MIC (Staphylococcus aureus [7])	MIC (Bacillus subtilis)	MIC (Enterococcus faecium [8])	MIC [9]	MIC [10]	MIC (Staphylococcus aureus [11])	MIC (Enterococcus faecium [12])	MIC (Bacillus cereus)	MIC [13]	MIC (Staphylococcus aureus [14])
CCC[C@@H]1NC(=O)[C@H](CCCNC(=N)N)NC(=O)[C@H](NC(=O)[C@H](CO)NC(=O)[C@@H](NC(=O)[C@H](NC(=O)[C@@H](CCCNC(=N)N)NC(=O)[C@H](CCCNC(=N)N)NC(=O)[C@@H](NC(=O)[C@@H](Cc2ccccc2)NC)[C@@H](C)CC)[C@@H](C)CC)[C@@H](C)CC)[C@H](C)OC(=O)[C@H]([C@@H](C)CC)NC1=O	32 µg/mL (≈ 23.4 µM)	0.25 µg/mL (≈ 0.183 µM)	8 µg/mL (≈ 5.84 µM)	> 32 µg/mL	0.25 µg/mL (≈ 0.183 µM)	32 µg/mL (≈ 23.4 µM)	16 µg/mL (≈ 11.7 µM)	16 µg/mL (≈ 11.7 µM)	32 µg/mL (≈ 23.4 µM)	2 µg/mL (≈ 1.46 µM)	0.5 µg/mL (≈ 0.365 µM)	16 µg/mL (≈ 11.7 µM)	32 µg/mL (≈ 23.4 µM)	2 µg/mL (≈ 1.46 µM)	0.5 µg/mL (≈ 0.365 µM)	16 µg/mL (≈ 11.7 µM)
CCC[C@@H]1NC(=O)[C@H](CCCNC(=N)N)NC(=O)[C@H](NC(=O)[C@H](CO)NC(=O)[C@@H](NC(=O)[C@H](NC(=O)[C@@H](CCC(N)=O)NC(=O)[C@H](CCCNC(=N)N)NC(=O)[C@@H](NC(=O)[C@@H](Cc2ccccc2)NC)[C@@H](C)CC)[C@@H](C)CC)[C@@H](C)CC)[C@H](C)OC(=O)[C@H]([C@@H](C)CC)NC1=O	0.125 µg/mL (≈ 0.0932 µM)	0.063 µg/mL (≈ 0.047 µM)	2 µg/mL (≈ 1.49 µM)	1 µg/mL (≈ 0.745 µM)	0.125 µg/mL (≈ 0.0932 µM)	0.25 µg/mL (≈ 0.186 µM)	0.5 µg/mL (≈ 0.373 µM)	0.063 µg/mL (≈ 0.047 µM)	2 µg/mL (≈ 1.49 µM)	0.063 µg/mL (≈ 0.047 µM)	0.063 µg/mL (≈ 0.047 µM)	0.25 µg/mL (≈ 0.186 µM)	2 µg/mL (≈ 1.49 µM)	1 µg/mL (≈ 0.745 µM)	0.063 µg/mL (≈ 0.047 µM)	0.5 µg/mL (≈ 0.373 µM)
CC[C@H](C)[C@H](NC(=O)[C@@H](Cc1ccccc1)NC)C(=O)N[C@@H](CCCNC(=N)N)C(=O)N[C@H](CCC(N)=O)C(=O)N[C@@H](C(=O)N[C@H](C(=O)N[C@@H](CO)C(=O)N[C@H]1C(=O)N[C@@H](C)C(=O)N[C@@H](C2CCCCC2)C(=O)N[C@@H]([C@@H](C)CC)C(=O)O[C@H]1C)[C@@H](C)CC)[C@@H](C)CC	0.063 µg/mL (≈ 0.0486 µM)	< 0.063 µg/mL	0.063 µg/mL (≈ 0.0486 µM)	0.063 µg/mL (≈ 0.0486 µM)	< 0.063 µg/mL	0.063 µg/mL (≈ 0.0486 µM)	0.125 µg/mL (≈ 0.0964 µM)	0.063 µg/mL (≈ 0.0486 µM)	0.063 µg/mL (≈ 0.0486 µM)	0.063 µg/mL (≈ 0.0486 µM)	0.063 µg/mL (≈ 0.0486 µM)	0.063 µg/mL (≈ 0.0486 µM)	0.125 µg/mL (≈ 0.0964 µM)	0.063 µg/mL (≈ 0.0486 µM)	0.063 µg/mL (≈ 0.0486 µM)	0.063 µg/mL (≈ 0.0486 µM)
CC[C@H](C)[C@H](NC(=O)[C@@H](Cc1ccccc1)NC)C(=O)N[C@@H](CCCNC(=N)N)C(=O)N[C@H](CCC(N)=O)C(=O)N[C@@H](C(=O)N[C@H](C(=O)N[C@@H](CO)C(=O)N[C@H]1C(=O)N[C@@H](CCCNC(=N)N)C(=O)N[C@@H](C2CCCCC2)C(=O)N[C@@H]([C@@H](C)CC)C(=O)O[C@H]1C)[C@@H](C)CC)[C@@H](C)CC	0.063 µg/mL (≈ 0.0456 µM)	0.063 µg/mL (≈ 0.0456 µM)	1 µg/mL (≈ 0.724 µM)	0.5 µg/mL (≈ 0.362 µM)	< 0.063 µg/mL	0.5 µg/mL (≈ 0.362 µM)	0.5 µg/mL (≈ 0.362 µM)	0.063 µg/mL (≈ 0.0456 µM)	1 µg/mL (≈ 0.724 µM)	0.063 µg/mL (≈ 0.0456 µM)	0.063 µg/mL (≈ 0.0456 µM)	0.063 µg/mL (≈ 0.0456 µM)	1 µg/mL (≈ 0.724 µM)	1 µg/mL (≈ 0.724 µM)	< 0.063 µg/mL	0.25 µg/mL (≈ 0.181 µM)
CC[C@H](C)[C@H](NC(=O)[C@@H](Cc1ccccc1)NC)C(=O)N[C@@H](CO)C(=O)N[C@H](CCCNC(=N)N)C(=O)N[C@@H](C(=O)N[C@H](C(=O)N[C@@H](CO)C(=O)N[C@H]1C(=O)N[C@@H](CCCNC(=N)N)C(=O)N[C@@H](C2CCCCC2)C(=O)N[C@@H]([C@@H](C)CC)C(=O)O[C@H]1C)[C@@H](C)CC)[C@@H](C)CC	0.125 µg/mL (≈ 0.0932 µM)	0.063 µg/mL (≈ 0.047 µM)	1 µg/mL (≈ 0.746 µM)	0.5 µg/mL (≈ 0.373 µM)	< 0.063 µg/mL	0.5 µg/mL (≈ 0.373 µM)	0.25 µg/mL (≈ 0.186 µM)	0.063 µg/mL (≈ 0.047 µM)	1 µg/mL (≈ 0.746 µM)	0.063 µg/mL (≈ 0.047 µM)	0.063 µg/mL (≈ 0.047 µM)	0.5 µg/mL (≈ 0.373 µM)	1 µg/mL (≈ 0.746 µM)	1 µg/mL (≈ 0.746 µM)	0.125 µg/mL (≈ 0.0932 µM)	0.5 µg/mL (≈ 0.373 µM)
